Results taken from patent US20220356174A1, “PYRIDIN-2-ONE COMPOUNDS USEFUL AS SMARCA2 ANTAGONISTS” (Epizyme, Inc., priority 2018, published 2022).

Columns and labels:
[1] = target: FL-SMARCA4 (Homo sapiens, UniProt P51532); test: SMARCA4 ATPase activity assay (ADP-Glo, chicken mononucleosome substrate); details: ATPase assay, enzyme 5 nM, ATP 250 uM, chicken mononucleosome 10 nM, 30 min preincubation
[2] = tested on: A549 cells; test: High-throughput proliferation (HTP) assay for A549 cells (CellTiter-Glo, 7 days); type: cell-based; details: Homo sapiens, 168 h, read-out: A549 SMARCA2 IC50
How it was run: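 A549 cells plated at 62.5 cells/well in F12K + 10% HI-FBS onto pre-dispensed compound, grown 7 days at 37° C., 5% CO2. Viability by CellTiter-Glo luminescence after 30 min at RT; EC50/IC50 from DMSO (0%) and 10 μM Doxorubicin (100%) inhibition controls.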

[3] = target: T1, FL-SMARCA2 (full-length human SMARCA2 isoform 1) (Homo sapiens, UniProt P51531); test: SMARCA2 ATPase activity assay (ADP-Glo, chicken mononucleosome substrate); type: biochemical; details: ATPase assay, enzyme 5 nM, ATP 250 uM, chicken mononucleosome 10 nM, 30 min preincubation
T1 construct: FLAG tag (YKDDDDK) (C); made in house; host or cells: Sf21 insect cells (baculovirus, pFastBacI)
T1 sequence (P51531 with tags, fused parts or gaps): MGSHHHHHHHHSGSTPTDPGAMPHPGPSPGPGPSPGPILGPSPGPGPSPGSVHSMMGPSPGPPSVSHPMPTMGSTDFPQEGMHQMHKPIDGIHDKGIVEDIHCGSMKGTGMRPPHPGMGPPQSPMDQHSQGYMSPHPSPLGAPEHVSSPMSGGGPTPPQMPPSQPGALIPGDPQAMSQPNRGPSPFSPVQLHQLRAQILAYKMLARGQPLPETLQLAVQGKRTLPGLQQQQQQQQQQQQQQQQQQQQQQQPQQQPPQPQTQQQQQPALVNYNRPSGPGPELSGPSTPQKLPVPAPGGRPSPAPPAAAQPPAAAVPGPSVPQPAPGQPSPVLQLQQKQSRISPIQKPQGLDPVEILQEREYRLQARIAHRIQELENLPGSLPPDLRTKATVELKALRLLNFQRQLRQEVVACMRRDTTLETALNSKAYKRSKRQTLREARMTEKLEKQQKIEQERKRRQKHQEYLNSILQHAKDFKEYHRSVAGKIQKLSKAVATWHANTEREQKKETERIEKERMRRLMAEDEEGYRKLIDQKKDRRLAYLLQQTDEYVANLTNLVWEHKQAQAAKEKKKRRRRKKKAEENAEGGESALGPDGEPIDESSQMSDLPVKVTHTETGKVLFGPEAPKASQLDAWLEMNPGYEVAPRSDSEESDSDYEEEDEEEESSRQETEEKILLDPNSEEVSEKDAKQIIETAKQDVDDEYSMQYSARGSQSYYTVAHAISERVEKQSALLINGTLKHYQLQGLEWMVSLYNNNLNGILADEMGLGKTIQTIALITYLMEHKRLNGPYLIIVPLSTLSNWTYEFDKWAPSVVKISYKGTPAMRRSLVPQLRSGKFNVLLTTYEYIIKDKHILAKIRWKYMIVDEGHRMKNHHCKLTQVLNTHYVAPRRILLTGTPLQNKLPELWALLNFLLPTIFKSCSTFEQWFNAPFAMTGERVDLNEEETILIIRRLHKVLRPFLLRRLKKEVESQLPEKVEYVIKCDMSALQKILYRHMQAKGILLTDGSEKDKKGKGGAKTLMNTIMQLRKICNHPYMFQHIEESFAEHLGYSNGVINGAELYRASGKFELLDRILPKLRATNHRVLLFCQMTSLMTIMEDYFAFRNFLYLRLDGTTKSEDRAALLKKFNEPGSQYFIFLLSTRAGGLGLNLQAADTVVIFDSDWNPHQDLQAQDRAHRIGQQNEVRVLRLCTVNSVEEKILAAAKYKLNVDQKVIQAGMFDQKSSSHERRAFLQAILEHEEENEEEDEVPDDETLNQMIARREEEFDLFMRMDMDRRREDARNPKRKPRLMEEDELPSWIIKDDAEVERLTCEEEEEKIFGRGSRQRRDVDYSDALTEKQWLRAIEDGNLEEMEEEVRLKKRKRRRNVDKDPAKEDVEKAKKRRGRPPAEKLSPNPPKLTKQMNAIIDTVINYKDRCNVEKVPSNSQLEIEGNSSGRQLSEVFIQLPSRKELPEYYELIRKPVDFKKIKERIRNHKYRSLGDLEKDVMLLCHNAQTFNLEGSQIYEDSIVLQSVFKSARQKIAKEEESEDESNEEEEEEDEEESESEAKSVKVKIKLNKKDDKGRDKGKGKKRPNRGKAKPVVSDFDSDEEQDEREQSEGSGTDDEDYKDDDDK

FL-SMARCA4, sequence (P51532 whole entry): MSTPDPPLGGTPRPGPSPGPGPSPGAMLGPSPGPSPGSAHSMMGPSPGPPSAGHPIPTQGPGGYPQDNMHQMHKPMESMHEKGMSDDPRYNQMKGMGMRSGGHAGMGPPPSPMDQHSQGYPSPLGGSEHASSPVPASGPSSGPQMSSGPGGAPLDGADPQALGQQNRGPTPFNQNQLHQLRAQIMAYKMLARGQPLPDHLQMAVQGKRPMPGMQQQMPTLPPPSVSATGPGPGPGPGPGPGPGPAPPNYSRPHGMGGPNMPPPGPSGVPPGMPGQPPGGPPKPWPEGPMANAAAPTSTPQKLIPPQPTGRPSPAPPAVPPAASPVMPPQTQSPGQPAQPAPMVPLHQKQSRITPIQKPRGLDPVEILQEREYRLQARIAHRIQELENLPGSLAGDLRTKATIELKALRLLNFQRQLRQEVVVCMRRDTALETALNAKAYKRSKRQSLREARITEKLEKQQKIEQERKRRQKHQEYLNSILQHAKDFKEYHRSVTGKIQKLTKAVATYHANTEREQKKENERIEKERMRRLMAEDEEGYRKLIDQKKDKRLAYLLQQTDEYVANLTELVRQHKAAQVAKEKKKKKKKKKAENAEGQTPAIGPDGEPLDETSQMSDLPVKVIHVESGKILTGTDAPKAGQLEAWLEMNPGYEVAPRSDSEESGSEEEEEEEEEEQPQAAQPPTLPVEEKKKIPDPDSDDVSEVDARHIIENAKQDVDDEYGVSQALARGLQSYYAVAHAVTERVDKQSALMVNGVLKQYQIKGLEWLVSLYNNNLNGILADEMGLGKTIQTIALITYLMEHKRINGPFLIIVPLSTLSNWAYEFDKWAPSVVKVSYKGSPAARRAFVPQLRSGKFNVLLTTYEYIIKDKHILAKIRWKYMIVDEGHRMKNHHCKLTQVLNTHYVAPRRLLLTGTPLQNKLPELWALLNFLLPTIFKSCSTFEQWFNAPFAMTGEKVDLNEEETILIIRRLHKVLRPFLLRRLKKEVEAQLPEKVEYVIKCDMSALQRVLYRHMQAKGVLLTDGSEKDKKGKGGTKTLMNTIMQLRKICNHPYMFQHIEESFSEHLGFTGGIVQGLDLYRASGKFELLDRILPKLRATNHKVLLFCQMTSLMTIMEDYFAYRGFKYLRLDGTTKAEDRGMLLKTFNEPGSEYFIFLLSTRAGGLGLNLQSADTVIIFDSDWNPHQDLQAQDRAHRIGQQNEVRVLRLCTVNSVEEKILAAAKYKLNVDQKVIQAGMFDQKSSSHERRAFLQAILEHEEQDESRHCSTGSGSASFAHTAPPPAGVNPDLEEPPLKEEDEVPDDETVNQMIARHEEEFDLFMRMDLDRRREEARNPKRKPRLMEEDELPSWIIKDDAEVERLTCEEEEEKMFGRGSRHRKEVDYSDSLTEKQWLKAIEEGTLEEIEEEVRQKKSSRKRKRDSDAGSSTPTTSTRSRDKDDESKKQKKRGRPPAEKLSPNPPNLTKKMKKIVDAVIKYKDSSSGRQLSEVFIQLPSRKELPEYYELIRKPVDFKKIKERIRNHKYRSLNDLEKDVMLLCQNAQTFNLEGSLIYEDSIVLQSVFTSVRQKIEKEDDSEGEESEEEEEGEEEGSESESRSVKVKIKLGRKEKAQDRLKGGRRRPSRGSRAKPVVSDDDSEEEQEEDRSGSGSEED

IC50 [2] [nM]	IC50 ([1]; FL-SMARCA4 IC50, Table 3.2) [nM]	IC50 ([3]; Table 3.1) [nM]	Compound	IC50 ([1]; FL-SMARCA4 IC>50, Table 3c.2) [nM]	IC50 ([3]; Table 3c.1) [nM]
868	54.1	19.6	N#Cc1sc(C(=O)Nc2cc(F)c(=O)n(CCF)c2)cc1Cl [Compound 139]		
682	165	24.1	O=C(Nc1cc(F)c(=O)n(CC(F)F)c1)c1cc(Cl)c(C(F)(F)F)s1 [Compound 298, 4-Chloro-N-(1-(2,2-difluoroethyl)-5-fluoro-6-oxo-1,6-dihydropyridin-3-yl)-5-(trifluoromethyl)thiophene-2-carboxamide]		

Compound	IC50 [2] [nM]	IC50 ([1]; FL-SMARCA4 IC50, Table 3.2) [nM]	IC50 ([3]; Table 3.1) [nM]	IC50 ([1]; FL-SMARCA4 IC>50, Table 3c.2) [nM]	IC50 ([3]; Table 3c.1) [nM]
N#Cc1cc(C(=O)Nc2cc(F)c(=O)n(CC(F)F)c2)sc1C(F)(F)F [Compound 82c, 4-cyano-N-[1-(2,2-difluoroethyl)-5-fluoro-6-oxopyridin-3-yl]-5-(trifluoromethyl)thiophene-2-carboxamide]	589			66.1	9.88
